Measurements: US7932277B2, “Peptide inhibitors of hepatitis C virus replication” (InterMune, Inc., priority 2007, dated 2011)
Like-named read-outs stand apart in the source and are kept apart here.

Columns and labels:
[1] = biological target: T1, NS3/NS4A-2 (full-length HCV NS3 protease complexed with NS4A-2) (Hepatitis C virus genotype 1a, UniProt P27958); assay: NS3 inhibition assay (NS3-NS4 protease assay); type: biochemical; conditions: recombinant full-length NS3/NS4A-2, RETS1 substrate, kinetic fluorescence read; read-out: NS3-NS4 IC50
T1 construct: Recombinant E. coli or Baculovirus full-length NS3; host or cells: E. coli or baculovirus (insect cells)
Outline: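 Full-length NS3 (E. coli-expressed at 2 nM or baculovirus-expressed at 3 nM) precomplexed with excess NS4A-2 peptide and preincubated with compound (top concentration 50 μM) for 10 min at room temperature. RETS1 substrate added; fluorescence read kinetically for 30 min (ex 335/em 495 nm). IC50 converted to Ki using Km 2.03 μM (E. coli) or 1.74 μM (baculovirus).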

[2] = test system: HCV sub-genomic replicon (1377/NS3-3') in HuH-7 hepatoma cells (GS4.3); assay: Quantitation by ELISA of NPTII in the HCV sub-genomic replicon, GS4.3; type: cell-based, hepatitis C virus (HCV); conditions: GS4.3 cells, 72 h incubation, NPTII ELISA, read-out: Replicon EC50
Outline: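 GS4.3 cells (HuH-7 carrying HCV 1377/NS3-3′ replicon) treated 72 h at 37 °C with compound at 3-fold dilutions from 10 μM to 56 pM final, 1% DMSO, without G418. NPTII in lysates quantified by ELISA (450 nm). Signal expressed as percent of DMSO control; EC50 by 4-parameter fit.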

T1 sequence (P27958 1027-1657, one chain of several): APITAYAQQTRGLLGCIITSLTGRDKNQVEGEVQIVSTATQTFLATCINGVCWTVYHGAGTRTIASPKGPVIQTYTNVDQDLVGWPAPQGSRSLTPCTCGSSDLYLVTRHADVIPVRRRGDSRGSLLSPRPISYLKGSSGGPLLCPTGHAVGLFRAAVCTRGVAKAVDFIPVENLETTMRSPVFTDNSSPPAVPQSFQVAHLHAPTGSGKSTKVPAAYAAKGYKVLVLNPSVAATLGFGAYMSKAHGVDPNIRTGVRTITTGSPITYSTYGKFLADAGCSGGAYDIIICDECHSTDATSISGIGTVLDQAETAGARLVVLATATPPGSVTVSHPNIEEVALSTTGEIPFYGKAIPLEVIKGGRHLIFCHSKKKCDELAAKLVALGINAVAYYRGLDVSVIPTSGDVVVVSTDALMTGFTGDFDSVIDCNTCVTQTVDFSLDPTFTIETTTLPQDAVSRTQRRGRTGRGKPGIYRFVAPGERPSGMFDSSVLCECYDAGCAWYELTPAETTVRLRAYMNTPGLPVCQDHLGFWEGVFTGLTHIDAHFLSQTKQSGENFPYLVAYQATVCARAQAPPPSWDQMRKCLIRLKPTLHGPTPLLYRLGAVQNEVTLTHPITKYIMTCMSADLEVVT

Row | Molecule | IC50 [1] | EC50 ([2]; Hepatitis C virus, Huh-7) | EC50 [2]
1 | CC[C@@H]1C[C@]1(NC(=O)[C@@H]1C[C@@H](OC(=O)N2Cc3cccc(F)c3C2)CN1C(=O)[C@@H](Nc1cccc(C)c1)C(C)C)C(=O)NS(=O)(=O)C1CC1 [Compound 49, [(3R,5S)-5-((1R,2R)-1-(cyclopropylsulfonylcarbamoyl)-2-ethylcyclopropylcarbamoyl)-1-((S)-3-methyl-2-(m-tolylamino)butanoyl)pyrrolidin-3-yl]4-fluoroisoindoline-2-carboxylate] | < 0.1 µM | 0.1 to 1 µM | –
2 | C=C[C@@H]1C[C@]1(NC(=O)C1Cc2cc(Oc3cccc(Cl)c3)ccc2CN1C(=O)[C@@H](Nc1ccc(F)cc1)C(C)(C)C)C(=O)NS(=O)(=O)C1CC1 (stereo partly drawn) [Compound 10, 6-(3-chlorophenoxy)-N-((1R,2S)-1-(cyclopropylsulfonylcarbamoyl)-2-vinylcyclopropyl)-2-((S)-2-(4-fluorophenylamino)-3,3-dimethylbutanoyl)-1,2,3,4-tetrahydroisoquinoline-3-carboxamide] | < 0.1 µM | 1 to 10 µM | –
3 | C=C[C@@H]1C[C@]1(NC(=O)[C@@H]1C[C@@H](OC(=O)N2Cc3cccc(F)c3C2)CN1C(=O)[C@@H](Nc1ccc(Br)cc1)C(C)C)C(=O)NS(=O)(=O)C1CC1 [Compound 36, [(3R,5S)-5-((1R,2S)-1-(cyclopropylsulfonylcarbamoyl)-2-vinylcyclopropylcarbamoyl)-1-((S)-2-(4-bromophenylamino)-3-methylbutanoyl)pyrrolidin-3-yl]4-fluoroisoindoline-2-carboxylate] | < 0.1 µM | 0.1 to 1 µM | –
4 | [(3R,5S)-5-(((1R,2R)-1-(Cyclopropylsulfonylcarbamoyl)-2-ethylcyclopropyl)carbamoyl)-1-((S)-2-cyclohexyl-2-(5-ethylthiazol-2-ylamino)acetyl)pyrrolidin-3-yl]4-chloroisoindoline-2-carboxylate [Compound 64] | < 0.1 µM | – | < 0.1 µM
5 | C=C[C@@H]1C[C@]1(NC(=O)[C@@H]1C[C@@H](OC(=O)N2Cc3cccc(F)c3C2)CN1C(=O)[C@@H](Nc1ccc(F)cc1)C(C)(C)C)C(=O)NS(=O)(=O)C1CC1 [Compound 37, [(3R,5S)-5-((1R,2S)-1-(cyclopropylsulfonylcarbamoyl)-2-vinylcyclopropylcarbamoyl)-1-((S)-2-(4-fluorophenylamino)-3,3-methylbutanoyl)pyrrolidin-3-yl]4-fluoroisoindoline-2-carboxylate] | < 0.1 µM | < 0.1 µM | –
6 | CC[C@@H]1C[C@]1(NC(=O)[C@@H]1C[C@@H](OC(=O)N2Cc3cccc(Cl)c3C2)CN1C(=O)[C@@H](Nc1cccc(C(C)(C)C#N)c1)C(C)C)C(=O)NS(=O)(=O)C1CC1 [Compound 54, [(3R,5S)-1-((S)-2-(3-(2-cyanopropan-2-yl)phenylamino)-3-methylbutanoyl)-5-((1R,2R)-1-(cyclopropylsulfonylcarbamoyl)-2-ethylcyclopropylcarbamoyl)-pyrrolidin-3-yl]4-chloroisoindoline-2-carboxylate] | < 0.1 µM | < 0.1 µM | –
7 | CC[C@@H]1C[C@]1(NC(=O)[C@@H]1C[C@@H](OC(=O)N2Cc3cccc(F)c3C2)CN1C(=O)[C@@H](Nc1cccc(C(F)(F)F)c1)C(C)C)C(=O)NS(=O)(=O)C1CC1 [Compound 47, [(3R,5S)-5-((1R,2R)-1-(cyclopropylsulfonylcarbamoyl)-2-ethylcyclopropylcarbamoyl)-1-((S)-3-methyl-2-(3-(trifluoromethyl)phenylamino)butanoyl)pyrrolidin-3-yl]4-fluoroisoindoline-2-carboxylate] | < 0.1 µM | < 0.1 µM | –
8 | CC(C)(C)[C@H](Nc1cccc(C(F)(F)F)c1)C(=O)N1C[C@H](OC(=O)N2Cc3cccc(Cl)c3C2)C[C@H]1C(=O)N[C@]1(C(=O)NS(=O)(=O)C2CC2)C[C@H]1C1CC1 [Compound 60, [(3R,5S)-5-((1R,2S)-1-(cyclopropylsulfonylcarbamoyl)-2-cyclopropylcyclopropylcarbamoyl)-1-((S)-3,3-dimethyl-2-(3-(trifluoromethyl)phenylamino)-butanoyl)pyrrolidin-3-yl]4-chloroisoindoline-2-carboxylate] | < 0.1 µM | < 0.1 µM | –
9 | C=C[C@@H]1C[C@]1(NC(=O)[C@@H]1C[C@@H](OC(=O)N2Cc3cccc(F)c3C2)CN1C(=O)[C@@H](Nc1cccc(C(F)(F)F)c1)C(C)C)C(=O)NS(=O)(=O)C1CC1 [Compound 42, [(3R,5S)-5-((1R,2S)-1-(cyclopropylsulfonylcarbamoyl)-2-vinylcyclopropylcarbamoyl)-1-((S)-3-methyl-2-(3-(trifluoromethyl)phenylamino)butanoyl)pyrrolidin-3-yl]4-fluoroisoindoline-2-carboxylate] | < 0.1 µM | < 0.1 µM | –
10 | C=C[C@@H]1C[C@]1(NC(=O)[C@@H]1Cc2cc(Oc3cccc(Cl)c3)ccc2CN1C(=O)[C@@H](Nc1ccc(F)cc1)C(C)(C)C)C(=O)NS(=O)(=O)C1CC1 [Compound 11, (S)-6-(3-chlorophenoxy)-N-((1R,2S)-1-(cyclopropylsulfonylcarbamoyl)-2-vinylcyclopropyl)-2-((S)-2-(4-fluorophenylamino)-3,3-dimethylbutanoyl)-1,2,3,4-tetrahydroisoquinoline-3-carboxamide] | < 0.1 µM | 10 to 50 µM | –
11 | CC[C@@H]1C[C@]1(NC(=O)[C@@H]1C[C@@H](OC(=O)N2Cc3cccc(F)c3C2)CN1C(=O)[C@@H](Nc1ccc(F)c(C(F)(F)F)c1)C(C)C)C(=O)NS(=O)(=O)C1CC1 [Compound 52, [(3R,5S)-5-((1R,2R)-1-(cyclopropylsulfonylcarbamoyl)-2-ethylcyclopropylcarbamoyl)-1-((S)-2-(4-fluoro-3-(trifluoromethyl)phenylamino)-3-methylbutanoyl)pyrrolidin-3-yl]4-fluoroisoindoline-2-carboxylate] | < 0.1 µM | < 0.1 µM | –
12 | CC[C@@H]1C[C@]1(NC(=O)[C@@H]1C[C@@H](OC(=O)N2Cc3cccc(F)c3C2)CN1C(=O)[C@@H](Nc1cccc(C(F)(F)F)c1)C(C)(C)C)C(=O)NS(=O)(=O)C1CC1 [Compound 56, [(3R,5S)-5-((1R,2R)-1-(cyclopropylsulfonylcarbamoyl)-2-ethylcyclopropylcarbamoyl)-1-((S)-3,3-dimethyl-2-(3-(trifluoromethyl)phenylamino)butanoyl)pyrrolidin-3-yl]4-fluoroisoindoline-2-carboxylate] | < 0.1 µM | < 0.1 µM | –
13 | CC[C@@H]1C[C@]1(NC(=O)[C@@H]1C[C@@H](OC(=O)N2Cc3cccc(F)c3C2)CN1C(=O)[C@@H](Nc1cccc(C#N)c1)C(C)C)C(=O)NS(=O)(=O)C1CC1 [Compound 51, [(3R,5S)-1-((S)-2-(3-cyanophenylamino)-3-methylbutanoyl)-5-((1R,2R)-1-(cyclopropylsulfonylcarbamoyl)-2-ethylcyclopropylcarbamoyl)pyrrolidin-3-yl]4-fluoroisoindoline-2-carboxylate] | < 0.1 µM | 0.1 to 1 µM | –
14 | C=C[C@@H]1C[C@]1(NC(=O)[C@@H]1C[C@@H](OC(=O)N2Cc3cccc(Cl)c3C2)CN1C(=O)[C@@H](Nc1nc(C(F)(F)F)cs1)C1CCCCC1)C(=O)NS(=O)(=O)C1CC1 [Compound 63, [(3R,5S)-5-(((1R,2S)-1-(Cyclopropylsulfonylcarbamoyl)-2-vinylcyclopropyl)carbamoyl)-1-((S)-2-cyclohexyl-2-(4-(trifluoromethyl)thiazol-2-ylamino)acetyl)pyrrolidin-3-yl]4-chloroisoindoline-2-carboxylate] | < 0.1 µM | < 0.1 µM | –
15 | CC[C@@H]1C[C@]1(NC(=O)[C@@H]1C[C@@H](OC(=O)N2Cc3cccc(Cl)c3C2)CN1C(=O)[C@@H](Nc1cccc(C(C)(C)C)c1)C(C)C)C(=O)NS(=O)(=O)C1CC1 [Compound 46, [(3R,5S)-1-((S)-2-(3-tert-butylphenylamino)-3-methylbutanoyl)-5-((1R,2R)-1-(cyclopropylsulfonylcarbamoyl)-2-ethylcyclopropylcarbamoyl)pyrrolidin-3-yl]4-chloroisoindoline-2-carboxylate] | < 0.1 µM | < 0.1 µM | –
16 | C=C[C@@H]1C[C@]1(NC(=O)[C@@H]1C[C@@H](OC(=O)N2Cc3cccc(Cl)c3C2)CN1C(=O)[C@@H](Nc1nc(-c2ccc(F)nc2)cs1)C1CCCCC1)C(=O)NS(=O)(=O)C1CC1 [Compound 61, [(3R,5S)-5-(((1R,2S)-1-(cyclopropylsulfonylcarbamoyl)-2-vinylcyclopropyl)carbamoyl)-1-((S)-2-cyclohexyl-2-(4-(6-fluoropyridin-3-yl)thiazol-2-ylamino)acetyl)pyrrolidin-3-yl]-4-chloroisoindoline-2-carboxylate] | < 0.1 µM | < 0.1 µM | –
17 | C=C[C@@H]1C[C@]1(NC(=O)[C@@H]1C[C@@H](OC(=O)N2Cc3cccc(Cl)c3C2)CN1C(=O)[C@@H](Nc1cccc(C(C)(C)C)c1)C(C)C)C(=O)NS(=O)(=O)C1CC1 [Compound 41, [(3R,5S)-1-((S)-2-(3-tert-butylphenylamino)-3-methylbutanoyl)-5-((1R,2S)-1-(cyclopropylsulfonylcarbamoyl)-2-vinylcyclopropylcarbamoyl)pyrrolidin-3-yl]4-chloroisoindoline-2-carboxylate] | < 0.1 µM | < 0.1 µM | –
18 | CC[C@@H]1C[C@]1(NC(=O)[C@@H]1C[C@@H](Oc2nc3ccccc3s2)CN1C(=O)[C@@H](Nc1cncc(C(F)(F)F)c1)C(C)(C)C)C(=O)NS(=O)(=O)C1CC1 [Compound 70] | < 0.1 µM | < 0.1 µM | –
